For assay [1], the system named is C. neoformans H99. It is filed as cell-based, Cryptococcus neoformans. The settings on record: 2× MIC, by 2 h, no rebound by 8 h; RPMI1640, 30 °C, 225 rpm, 2 million cfu/mL. On the procedure:
Culture tubes were prepared with aliquots of 2.0 mL of RPMI1640 (containing Q, MOPS, pH = 7, no phenol red). The tubes were sealed to prevent evaporation and were equilibrated with the incubation chamber overnight, at 30 °C. On the day of the experiment, overnight yeast cultures in YPD were washed twice with DD-H2O and resuspended in DD-H2O. The OD600 of the cell suspension was adjusted to 4.6, ≈2 × 10^6 cfu/mL, in DD-H2O. A 200 μL aliquot of adjusted cell suspension was added systematically to each tube, followed by 200 μL sampling for the 0 h time point. Immediately after sampling, the antifungal compounds were added, and the tubes were placed in the incubator at 30 °C with shaking at 225 rpm. The sampled aliquot was transferred to a 96-well plate and serially diluted six times, 10-fold each time. The resulting cell suspensions were spotted onto YPD plates in a grid pattern of 5 μL per spot. Subsequently, tubes were briefly removed from the incubator, and 100 μL aliquots were sampled at 2, 4, 6, and 8 h time points. Cells were counted on the YPD plates at either 24 or 48 h after plate spotting, depending on when the colonies were countable. Images of the YPD plates were recorded on the Bio-Rad Gel imager after 48 h of incubation at 30 °C. […] 2 C = number of colonies counted, Df = dilution factor = 10^n–1, n = column that the cells were counted, and Vf = volume factor = 1/0.005 mL.

The test system of assay [2] is C. neoformans in macrophage J774 cells. Nature of the assay: Macrophage killing assay. The settings on record: yeast pretreated at sub-MIC for 30 min; 2 or 4 h coincubation. It is filed as cell-based, Cryptococcus neoformans / murine macrophage. On the procedure:
Macrophage killing assay was carried out in accordance with previously reported protocols.[23],[69] After the cell line was activated from −80 °C stock and passaged several times, the cells were washed and resuspended in fresh DMEM + FBS at 1 × 10^5 cell/mL. Each well in a 3 column by 6 row grid in a 48-well plate was charged with 0.5 mL of cell suspension, approximately 50,000 cell/well. Macrophages were grown ON at 37 °C in a tissue culture incubator and were further activated with LPS. Yeast cells were grown ON using standard conditions. Fungal cells were washed twice with H2O, resuspended in PBS, and adjusted to 2.4 × 10^6 cfu/mL in 5 mL RPMI. […] Treated cells were transferred to a 1.5 mL Eppendorf tube, pelleted, and resuspended in 100 μL of 20% mouse compliment in PBS for opsonization. Prior to inoculating the wells with yeast cells for coincubation, the opsonized cells were diluted by an additional 20% with PBS. Each well was inoculated with 10 μL of cell suspension. Cocultures were prepared using three technical replicates. The 48-well plates were inoculated about 30 min apart to allow time to process each plate during the experiment. After 2 h of coincubation, each well was washed three times with 200 μL of warm DMEM + penstrep. […]

The test system of assay [3] is C. neoformans with macrophage J774 cells. Nature of the assay: Phagocytosis assay. It is filed as cell-based, Cryptococcus neoformans / murine macrophage. The settings on record: sub-MIC peptide-treated yeast cells coincubated with macrophages for 2 h. On the procedure: The J774A. I macrophage-like cell line (ATCC# TIB-67) was grown in DMEM supplemented with 10% FBS, 5% penstrep, and L-glutamine (1×), and passed 2–3 times per week. The cells were never used after 5 passages. Phagocytosis assay was performed in a 48-well plate using J774 cells (5 × 10^4) in 0.5 mL of fresh DMEM were added to each well and incubated at 37 °C, 5% CO2. To activate the macrophages, 50 units/mL interferon γ (IFN-γ; Invitrogen) and 1 μg/mL lipopolysaccharide (LPS; Sigma) were added to each well. Yeast cells were adjusted to 2.4 × 10^6 cfu/mL in RPMI1640. One mL of cell suspension was aliquoted into a 12 mL vented culture tube. The peptide was added to each tube, and the cells were incubated for 30 min at 30 °C, 225 rpm. The cells were pelleted and resuspended in 100 μL of 20% mouse compliment in PBS. The cells were opsonized at room temperature for 30 min. After opsonization, 10 μL of cell suspension was added to each well. Yeast cells were coincubated with macrophages for 2 h at 37 °C in 5% CO2 in technical triplicates per condition. After coincubation, the supernatant was removed, and the wells were washed 3 times with 200 μL DMEM + penstrep, and then fixed with 200 μL ice cold methanol for 30 min. […] The images were quantified using phagocytosis rate, % phagocytosis, and phagocytic index, eqs 3–5, between 200 and 300 macrophages were counted per technical replicate [drawing 3] […]

The subject of assay [4] is C. neoformans H99. The settings on record: Cn wild-type, previous study; cited from earlier work.

In brackets after ≈: the same amount, converted by molar mass. Square brackets hold non-standard residues; d marks the D form. Peptide text beside a SMILES is read from it. * marks the point of attachment. Myristoyl = CCCCCCCCCCCCCC(=O)*; Orn = NCCC[C@H](N)C(=O)O

For the molecule `CCCCCCCCCCCCCC(=O)N[C@@H](Cc1c[nH]c2ccccc12)C(=O)NCC(=O)NCC(=O)N[C@H](C(=O)N[C@@H](CCCN)C(=O)N[C@@H](CCCN)C(=O)N[C@@H](CC(N)=O)C(=O)N[C@@H](Cc1ccc(O)cc1)C(=O)N[C@@H](C)C(N)=O)[C@@H](C)CC` [KKOO-NH2] (Myristoyl-WGGI[Orn][Orn]NYA-NH2), in assay [1], the Cryptococcus cells killed is listed as > 99.9%. Further, the “fungal proliferation inside macrophages vs untreated control” value in assay [2] is given as “No statistically significant difference”. Moreover, in assay [3], the “phagocytic index or phagocytosis rate vs control” value was “No statistically significant differences”.

As for `CC[C@H](C)C[C@H](C)CCCCCCCCC(=O)N[C@H]1C[C@@H](O)[C@@H](NCCN)NC(=O)[C@@H]2[C@@H](O)CCN2C(=O)[C@H]([C@H](O)CCN)NC(=O)[C@H]([C@H](O)[C@@H](O)c2ccc(O)cc2)NC(=O)[C@@H]2C[C@@H](O)CN2C(=O)[C@H]([C@@H](C)O)NC1=O` [CAS, caspofungin], the MIC in assay [4] was 16 µg/mL (≈ 14.6 µM).

Values taken from paper PMC11555678, “Improved Broad Spectrum Antifungal Drug Synergies with Cryptomycin, a Cdc50-Inspired Antifungal Peptide” (ACS Infectious Diseases, 2024).
